Assay results reported in US11299543B2, “Use of an anti-PD-1 antibody in combination with an anti-CD30 antibody in cancer treatment” (Bristol-Myers Squibb Company, priority 2016, dated 2022).
“Also recorded” adds a separate entry of the source. *1 amine or outer side, *2 acyl side, *3 side chain or, on linkers, in order; H or OH if unused. Where a SMILES comes first, the peptide text is derived from it. [ ]: non-standard residue; d: D form. The star is where a group is joined. Dolaproine = CO[C@@H]([C@@H]1CCCN1)[C@@H](C)C(=O)O; Hexanoyl(6-maleimido) = O=C1C=CC(=O)N1CCCCCC(=O)*; Dil = CC[C@H](C)[C@H](NC)[C@@H](CC(=O)O)OC; PABC = O=C(OCc1ccc(N[*:1])cc1)[*:2]; X1 = C[C@@H](N*)[C@@H](O)c1ccccc1; Cit = NC(=O)NCCC[C@H](N)C(=O)O; NMeV = CN[C@H](C(=O)O)C(C)C

Columns and labels:
[1] = tested on: peripheral blood T cell subsets; experiment: phase 1/2 study NCT02572167, peripheral blood immunophenotyping; format: in vivo, human
Text: FIGS. 7A-7C show peripheral blood immunophenotyping. T helper subsets, such as Tregs, (FIG. 7A), activated CD4^+ T cells (FIG. 7B), and proliferating CD4^+ T cells (FIG. 7C), which were reduced after single agent BV dosing, expanded after BV and nivolumab combination dosing.
(§1) A phase 1/2 study (NCT02572167) is ongoing to assess the safety profile and antitumor activity of BV administered in combination with nivolumab in patients with relapsed or refractory Hodgkin lymphoma (HL). Patients will be treated for up to four 21-day cycles with BV 1.8 mg/kg and nivolumab 3 mg/kg. Patients will be administered 1.8 mg/kg BV on Cycle 1 Day 1, and 3 mg/kg nivolumab on Cycle 1 Day 8. For cycles 2 through 4, BV and nivolumab will be administered on Day 1 of each cycle at the same doses, e.g., 1.8 mg/kg BV and 3 mg/kg nivolumab. Both BV and nivolumab will be administered by IV injection. After completion of the Cycle 4 response assessment (EOT), patients will be eligible to undergo ASCT. Responses were assessed using the 2014 Lugano classification (Cheson et al., J Clin Oncol 2014; 32(27):3059-68).

[2] = monotherapy, every two weeks; MTD not reached; cited from earlier work
PD-1 = molecular target: T1, PD-1 (Homo sapiens, UniProt Q15116); conditions: 15 subjects, 0.3 mg/kg to 10 mg/kg nivolumab, across all doses; cited from earlier work
T1 construct: Receptor-occupancy data from 15 subjects who received 0.3 mg/kg to 10 mg/kg dosing with nivolumab indicate that PD-1 occupancy appears to be dose-independent; host or cells: endogenous receptor in dosed subjects

LCL tumors [3] = experiment: T cell and NK cell infiltration into autologous LCL tumors, humanized mouse model; format: in vivo, NSG mice; conditions: single suboptimal dose 1 mg/kg i.p., autologous PBMC transferred
Method: Epstein Barr virus (EBV) transformed lymphoblastoid cell Lines (LCL) were implanted subcutaneously into NSG mice. When LCL tumor volumes reached 250 mm^3, mice received a single suboptimal dose of BV or control hIgG-MMAE (1 mg/kg, i.p). Three days following dosing, 2.0×10^6 autologous peripheral blood mononuclear cells (PBMC) were adoptively transferred to mice via tail vein injection. Eleven days following transfer of PBMC, tumors were harvested, weighed, and manually dissociated through a 70 μm cell strainer. Following centrifugation, individual tumor cell pellets were resuspended in 4 ml of RPMI+10% FCS, and 200 ul of the cell suspension was used for staining and analysis by flow cytometry (FACS). Tumor cell suspensions were stained with Zombie Aqua Viability Dye (Biolegend) followed by staining with fluorescently labeled antibodies targeting human CD19, CD2, CD8, CD4, CD56, human CD45, PD-L1, PD-1, and murine CD45.1 (1:50 dilution, Biolegend) in staining buffer (SB: PBS, 2% FCS, 1% NRS, 0.05% NaN3) at 4° C. for 30 minutes. Cells were washed and resuspended in 120 μl of SB for plate-based FACS using an Attune NXT flow cytometer. All events were collected from 80 μl of sample, and FACS-measured cell concentrations were used to calculate numbers of infiltrating immune cells. CD8^+ T cells were identified as viability dye^neg, hCD45^+, mCD45.1^−, CD2^+, CD8^+ cells. […]

wild-type A20 cells [4] = experiment: immunization with drug-killed A20^hcD30 cells, then wild-type A20 challenge; format: in vivo, Balb/c mice; conditions: mice immunized with drug-killed A20^hcD30 cells; for tumor growth: 5×10^6 wild-type A20 cells s.c.
Method: A20 mouse lymphoma cells were transfected with plasmid constructs encoding human TNFRSF8 (NM_001243.4) and sgRNA/Cas9 for control under the endogenous promoter of murine Tnfrsf8. Fluorescence activated cell sorting (FACS) yielded a clonal population of A20 cells that stably expressed human CD30, to be referenced as A20^hcD30, in order to be susceptible to brentuximab vedotin treatment.
A20^hcD30 cells were cultured in RPMI 1640 with 10% FBS, 10 mM HEPES, 1 mM sodium pyruvate, penicillin (100 U/ml), and streptomycin (100 μg/ml). A20^hcD30 cells were treated with 1 μg/ml BV or 100 nM mc-vc-MMAE for 4 days. In order to prepare dying cells for immunization, treated A20^hcD30 cells were overlaid atop Histopaque, and centrifuged at 2000 g for 30 minutes. Dead and dying cells were pelleted underneath the Histopaque layer, and viability was assessed to be <20% live cells by trypan blue exclusion. Flash-frozen A20^hcD30 cells were prepared by submerging cells in liquid nitrogen for 10 seconds, followed by immersion in 37° C. water until completely thawed. The liquid nitrogen freeze-thaw process was repeated 5 times. Dead and dying A20^hcD30 cells were resuspended in PBS and 2×10^6 cells were injected into the peritoneum of immune-competent Balb/c mice. 7 days later, mice received a second immunization with dead and dying cells prepared in the same manner.
14 days after initial immunization, mice were subcutaneously implanted with 5×10^6 wild-type A20 cells and monitored for tumor growth. […] As these effects occurred in the absence of any administered therapeutic, the presence of cells killed by BV or MMAE were sufficient to generate long-lasting protective immune memory against subsequent A20 lymphoma challenge.

LCL tumors [5] = experiment: immune-mediated tumor clearance in the humanized LCL tumor model; format: in vivo, NSG mice
Method: Epstein Barr virus (EBV) transformed lymphoblastoid cell lines (LCL) were implanted subcutaneously into NSG mice. When LCL tumors averaged 250 mm^3, mice received a single suboptimal dose of BV or control hIgG-MMAE (1 mg/kg, i.p). Three days following dosing, 2×10^6 autologous PBMC were adoptively transferred to mice via tail vein injection. Mice received two doses of nivolumab (10 mg/kg, i.p.) 2 and 7 days after adoptive transfer of PBMC. […] The significance of these differences is reflected in a comparison of mean tumor volumes at day 50, during active tumor clearance (FIG. 15B). Taken together, results obtained from this humanized model support the conclusion that in addition to direct tumor cell killing, BV drives an inflammatory response that enhances immune-mediated cellular cytotoxicity and pairs well with nivolumab.

[6] = tested on: CD30+ relapsed, refractory DLBCL; conditions: patients treated with BV; cited from earlier work
[7] = tested on: CD30+ relapsed, refractory peripheral T-cell lymphoma (PTCL); conditions: patients treated with BV; cited from earlier work
[8] = tested on: CD30+ cutaneous T-cell lymphoma (CTCL); conditions: patients treated with BV; cited from earlier work
TARC, IP10, IL-18, IFNγ = experiment: phase 1/2 study NCT02572167, serum cytokine and chemokine levels; format: in vivo, human
Method: FIGS. 6A-6D show priming of the immune system of patients treated with brentuximab vedotin (BV) in combination with nivolumab.
as §1

wild-type A20 cells [9] = experiment: T cell transfer from immunized mice into A20 tumor-bearing NSG mice; format: in vivo
Method: Immune-competent Balb/c mice were immunized with BV-killed or flash-frozen-killed A20^hcD30 cells as previously described. 16 weeks after initial immunization, spleens were harvested from immunized mice or naïve Balb/c mice, and manually homogenized. Splenic homogenates were combined from 4 mice per immunization, and CD3^+ T cells were isolated using EasySep Mouse T cell Enrichment Kit (Stem Cell Technologies). 1×10^6 CD3+ T cells were administered intravenously into A20 tumor-bearing mice.
4×10^6 wild-type A20 cells were subcutaneously implanted into immunodeficient NOD/SCID/γ-chain-deficient (NSG) mice. 5 days after implant, mice harboring tumors˜100 mm^3 were randomized, and received 1×10^6T cells from mice as described above.

wild-type A20 cells [10] = experiment: immunization with drug-killed A20^hcD30 cells plus anti-PD-1, A20 challenge; format: in vivo, Balb/c mice; conditions: anti-PD-1 1 mg/kg i.v. days 6, 9, 14, 17
Method: Balb/c mice were immunized with BV- or MMAE-killed A20^hcD30 cells as described above. 14 days after initial immunization, mice were subcutaneously implanted with 5×10^6 wild-type A20 cells. Anti-murine PD-1 (1 mg/kg, BioLegend) was administered intravenously on days 6, 9, 14, and 17 after A20 tumor challenge.

[11] = tested on: xenograft models of Hodgkin disease; conditions: SCID mouse xenograft; cited from earlier work
CD30^+ cell lines = conditions: in vitro; cited from earlier work

T1 sequence (Q15116 25-288): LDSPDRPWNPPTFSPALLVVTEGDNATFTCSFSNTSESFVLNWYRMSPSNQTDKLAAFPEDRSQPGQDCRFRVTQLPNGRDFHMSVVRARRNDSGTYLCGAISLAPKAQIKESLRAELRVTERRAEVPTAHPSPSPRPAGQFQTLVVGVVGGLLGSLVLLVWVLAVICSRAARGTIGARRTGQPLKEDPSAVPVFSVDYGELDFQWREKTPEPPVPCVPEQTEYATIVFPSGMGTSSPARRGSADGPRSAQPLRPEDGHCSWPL

Compound: nivolumab
- T cells ([1]; Cycle 1, one week after nivolumab dosing (2 weeks after BV dosing)): robust expansion
- percentage of CD4+ Th1 cells compared to baseline ([1]; most patients (5 of 6, 83%)): no significant change
- maximum tolerated dose (MTD) [2]: > 10 mg/kg
- mean occupancy rate (PD-1) (PD-1): 85%
- mean plateau occupancy (PD-1) (PD-1): 72%

Compound: BV: CD30-directed antibody-drug conjugate: chimeric anti-CD30 antibody cAC10, MMAE and a protease-cleavable linker
- intratumoral accumulation of human cytotoxic cells (LCL tumors [3]): enhanced intratumoral accumulation of human cytotoxic cells
- survival of tumor-bearing mice (wild-type A20 cells [4]): increased survival
- tumor growth (wild-type A20 cells [4]): delayed tumor growth
- percentage of CD4+ T regulatory (Treg) cells ([1]; Cycle 1 Day 8, preliminary): decrease
- proliferating CD8+ T cells ([1]; Cycle 1 Day 8, preliminary): no effect
- T helper subsets, such as Tregs ([1]; peripheral blood): initial reduction; also recorded: reduced
- activated CD4+ T cells ([1]; peripheral blood): initial reduction; also recorded: reduced
- proliferating CD4+ T cells ([1]; peripheral blood): initial reduction; also recorded: reduced
- tumor rejection (LCL tumors [5]; suboptimal dose 1 mg/kg i.p. without the addition of PBMC): did not reject tumors
- immune-mediated tumor clearance (LCL tumors [5]; with autologous PBMC, BV 1 mg/kg i.p., nivolumab 10 mg/kg i.p.): enhanced immune-mediated tumor clearance
- ORR [6]: 44%
- ORR [7]: 41%
- ORR [8]: 73%
- pro-inflammatory cytokine and chemokine levels (TARC, IP10, IL-18, IFNγ; after BV dosing, following concurrent BV and nivolumab): increase
- Pro-inflammatory cytokine IL-18 levels (TARC, IP10, IL-18, IFNγ; after C1D1 BV dosing, with BV and nivolumab dosing): significantly higher
- T-cell chemokine IP10 levels (TARC, IP10, IL-18, IFNγ; after C1D1 BV, following C1D8 nivolumab dosing): significantly higher
- Serum TARC levels (TARC, IP10, IL-18, IFNγ; compared to baseline): significantly lower
- tumor growth (wild-type A20 cells [9]; NSG mice given 1×10^6 T cells from mice immunized with BV-killed cells): slowed tumor growth
- CD8 T cells within the tumor (wild-type A20 cells [9]; NSG mice given T cells from mice immunized with BV-killed cells): increased CD8 T cells within the tumor
- protective anti-tumor immunity (wild-type A20 cells [10]): conferred protective anti-tumor immunity

Compound: CC[C@H](C)[C@@H]([C@@H](CC(=O)N1CCC[C@H]1[C@H](OC)[C@@H](C)C(=O)N[C@H](C)[C@@H](O)c1ccccc1)OC)N(C)C(=O)[C@@H](NC(=O)[C@H](C(C)C)N(C)C(=O)OCc1ccc(NC(=O)[C@H](CCCNC(N)=O)NC(=O)[C@@H](NC(=O)CCCCCN2C(=O)C=CC2=O)C(C)C)cc1)C(C)C [mc-vc-MMAE] ({Hexanoyl(6-maleimido)}-V[Cit][PABC][NMeV]V[Dil][Dolaproine]-X1)
- survival of tumor-bearing mice (wild-type A20 cells [4]): increased survival
- tumor growth (wild-type A20 cells [4]): delayed tumor growth
- protective anti-tumor immunity (wild-type A20 cells [10]): conferred protective anti-tumor immunity

Compound: cAC10: chimeric IgG1 monoclonal antibody that specifically binds CD30
- antitumor activity [11]: pronounced antitumor activity
- growth of CD30+ cell lines (CD30^+ cell lines): induces growth arrest
